Biological target: MMP-9 (Homo sapiens, UniProt P14780)
Assay: Fluorometric assay of MMP-9 inhibition (cleavage of a fluorogenic peptide substrate)
Type: biochemical
Conditions: incubated 30 minutes at room temperature
Experimental: The second assay utilized the technique of fluorescence resonance energy transfer (FRET). The substrate peptide (Calbiochem) comprised seven amino acids coupled to a carboxyl terminal dinitrophenyl acceptor, and an amino terminal 2-aminobenzo-anthraniloyl (Abz) moiety donor. Cleavage of this substrate by MMP-9 results in the liberation of a fluorescent product (365 nm excitation, 450 nm emission). […] MMP at a concentration of 0.5 μM was mixed with varying amounts of compound and incubated at 25° C. for 10 minutes in order to effect binding. The protein mixture was added to the peptide substrate, and was quickly mixed. Fluorescence intensity as a function of time was measured with a Dynex MFX fluorescence microtiter plate reader. Fluorescence intensity was related back to moles of peptide cleaved by producing a standard curve with an Abz containing non-FRET peptide. Inhibitory constants were derived from the curves as above. (Segel, IH. (1993) Enzyme Kinetics: Behavior and analysis of rapid equilibrium and steady-state enzyme systems. Wiley Classics Library, John Wiley and Sons, Inc. New York.)
The inhibition of MMP-9 by AQCA was measured by fluorometric assay. The fluorometric assay measures the cleavage of a fluorogenic peptide substrate (excitation wavelength 355 nm, emission wavelength 455 nm). MMP-9 is incubated with 0 mM AQCA (open circles), 1 mM AQCA (closed circles); or 2 mM AQCA (closed squares) for 30 minutes at room temperature. Fluorescence is measured at the times (in minutes) indicated.
Inhibition of MMP-9. Fluorometric assay which measures the cleavage of a fluorogenic peptide substrate (excitation wavelength 355 nm, emission wavelength 455 nm). […] Fluorescence is measured at the times (in minutes) indicated.
The inhibition of MMP-9 by anthraquinyl-mercaptoethylamine was measured by fluorometric assay. […] Fluorescence is measured at the times (in minutes) indicated.
The inhibition of MMP-9 by anthraquinyl alanine hyroxamate was measured by fluorometric assay. […] Fluorescence is measured at the times (in minutes) indicated.

[1] = 0.25 mM compound, FIG. 3 and FIG. 4

MMP-9, sequence (P14780 94-707, species assumed): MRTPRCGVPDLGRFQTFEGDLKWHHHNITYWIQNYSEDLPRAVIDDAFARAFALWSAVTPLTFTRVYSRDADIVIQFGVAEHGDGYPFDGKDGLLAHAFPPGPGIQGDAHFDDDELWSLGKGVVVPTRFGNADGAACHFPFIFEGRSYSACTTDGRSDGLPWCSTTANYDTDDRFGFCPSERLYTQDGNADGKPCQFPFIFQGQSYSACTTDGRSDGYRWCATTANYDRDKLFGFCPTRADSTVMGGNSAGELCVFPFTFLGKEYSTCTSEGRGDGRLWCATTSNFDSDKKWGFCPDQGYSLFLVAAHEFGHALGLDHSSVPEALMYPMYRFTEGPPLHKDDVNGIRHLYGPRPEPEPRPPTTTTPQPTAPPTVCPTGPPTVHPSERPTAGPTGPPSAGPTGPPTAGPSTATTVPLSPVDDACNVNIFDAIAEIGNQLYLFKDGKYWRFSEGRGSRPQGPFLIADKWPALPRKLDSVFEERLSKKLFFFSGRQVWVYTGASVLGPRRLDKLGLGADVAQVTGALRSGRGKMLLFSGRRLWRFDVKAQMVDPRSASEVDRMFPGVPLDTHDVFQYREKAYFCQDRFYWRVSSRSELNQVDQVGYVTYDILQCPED

In the case of `O=C(O)c1cc(O)c2c(c1)C(=O)c1cccc(O)c1C2=O` [AQCA, 4,5-dihydroxyanthaquinone-2-carboxylic acid], the “inhibition of the enzymatic activity of MMP-9” value (shortened to “inhibition”) (1 mM or 2 mM AQCA, FIG. 2) is reported as “inhibited the enzymatic activity of MMP-9 in a dose dependent manner”.

In the case of `CC(NC(=O)c1cc(O)c2c(c1)C(=O)c1cccc(O)c1C2=O)C(=O)NO` (stereo not drawn) [anthraquinyl alanine hyroxamate, anthraquinyl-alanine hydroxamate], the “inhibition” value [1] is reported as “inhibited the enzymatic activity of MMP-9”.

In the case of `O=C(NCCS)c1cc(O)c2c(c1)C(=O)c1cccc(O)c1C2=O` [anthraquinyl mercaptoethylamine, anthraquinyl-mercaptoethyamine], the “inhibition” value [1] is reported as “inhibited the enzymatic activity of MMP-9”.
